US20240002369A1, “NOVEL TREATMENTS OF ATTENTION DEFICIT/HYPERACTIVITY DISORDER” (priority 2020, published 2024)
Entries after “also recorded” stand apart in the source; their conditions may differ. Structures can show the parent of a compound that is named as a salt. Marks after values point to notes of the source that are not given here.

What was measured:
[1] = tested on: Lphn3.1 HOM larvae; assay: Sleep behavior in freely moving zebrafish larvae during lights-off period; details: for comparison of all sleep parameters (summary): 1, 10, 30 μM, FIG. 6A-6D
Description: This assay provides a measure of muscle weakness and/or motor coordination, which co-occurs with certain sleep states, but can also occur independently of sleep. […] Thus, to evaluate the effect of moxonidine on sleep behavior, the sleep behavior in freely moving zebrafish (Lphn3.1 HOM larvae) following treatment with moxonidine, a comparator compound, or negative control (i.e. saline or vehicle control) was assessed in line with the criteria described by Levitas-Djerbi et al., (Curr Opin Neurobiol. 2017; 44:89-93) and Sorribes et al., (Front Neural Circuits. 2013 Nov. 13; 7:178).
In brief, sleep behavior was recorded in a 96-well plate and analysed during the lights-off period (22:00-08:00). First, all behavior was dichotomized into 1-s bins of movement or non-movement. […] All activity that was slower than that threshold was computed as non-movement. Thus, rendering a dichotomized record of the behavior in either movement or non-movement. Next, the dichotomized record was transformed into bins of sleep and wake. Following previously established sleep criteria in adults, and adapted to larval fish (Yokogawa et al., PLoS Biol. 2007; 5(10):2379-97, Sorribes et al., Front Neural Circuits. 2013; 7:178, and Sigurgeirsson et al., Behav Brain Res. 2013; 256:377-90), six or more consecutive 1-s bins of non-movement were counted as sleep and all else was counted as wake. That is, the seventh second and above were classified as sleep; all other bouts were classified as wake. Once the number of sleep and wake bouts was calculated, five different sleep parameters were assessed (i.e. sleep fragmentation, sleep ratio, velocity during sleep, wake bout duration(s), and sleep bout duration(s)). Sleep fragmentation was defined as the number of transitions between sleep and wake bouts per hour. Sleep ratio was calculated as the percentage of total night time that the fish was considered asleep. Velocity during sleep (mm/s) was defined as the average velocity throughout the night time. Wake bout duration(s) was defined as the average length of wake bouts. Sleep bout duration(s) was defined as the average length of sleep bouts.

[2] = tested on: Lphn3.1 WT larvae; assay: Motor assay in wild-type zebrafish larvae; assay type: in vivo, zebrafish (Danio rerio)
[3] = tested on: scopolamine-induced cognitive dysfunction; assay: T-maze alternation test, scopolamine-induced cognitive dysfunction model; assay type: in vivo, Male CD-1 mice
From the text: Male CD-1 mice aged 4-5 weeks were allocated to a T-maze to perform the T-maze alternation test as described by Andriambeloson et al., 2014 (Pharma Res Per, 2 (4), 2014, e00048, included herein by reference). In brief, each mouse was placed in a T-maze consisting of a main stem and two arms. The experiment consisted of one “forced-choice” trial and 14 “free-choice” trials to evaluate the number of spontaneous alternations.

[4] = Tan et al., Proc Natl Acad Sci USA 2002; cited from earlier work
[5] = tested on: Lphn3.1 HOM larvae; assay: Motor assay in the zebrafish model of ADHD (Lphn3.1 knock-out larvae); assay type: in vivo, zebrafish (Danio rerio)
From the text: Zebrafish larvae carrying a knock-out of the Latrophilin3 (Lphn3.1) gene were generated by CRISPR-Cas9. Zebrafish were kept in a 14:10 light: dark cycle in 3 or 10 L multi tank constant flow system (Aquatic Habitats, Apopka, FL, USA). For behavioral analysis a total number of 881, 6 days-post fertilization (dpf) embryos carrying a homozygous knock-out of the Lphn3.1 gene were used in the study. Adult zebrafish with a homozygous knock-out of the Lphn3.1 gene and adult zebrafish with a wild-type Lphn3.1 gene were fed three times a day on a variable diet of TetraMin flakes (Tetra Holding GmbH, Melle, Germany) and live Artemia. […]
Following a 24 hour acclimation period, behavioral recordings were made. Locomotor activity was recorded between […] and 6.00 pm at 6 dpf during alternating light and dark conditions, presented in 30-minute intervals. For this period, average distance moved (mm) by the larvae was calculated as the mean of the total distance swum during five separate 30-minute intervals immediately after transition of light conditions. […]
Data was obtained using EthoVision XT (Version Nov. 5, 2016, Noldus) and exported to Microsoft Excel for analysis. […] For analysis of Lphn 3.1 larvae treated with moxonidine statistical differences were evaluated using one-way ANOVA with Dunnett two-sided post hoc analysis. […]

[6] = Lphn3.1 HOM, zebrafish, in vivo, 10 h, 1 uM
[7] = Lphn3.1 HOM, zebrafish, in vivo, 10 h, 10 uM
[8] = Lphn3.1 HOM, zebrafish, in vivo, 10 h, 30 uM
[9] = 1 uM vs HOM - DMSO, average length of sleep bouts
[10] = 1 uM vs HOM - DMSO, average length of wake bouts
[11] = 1 uM vs HOM - DMSO, average velocity throughout the night time
[12] = 1 uM vs HOM - DMSO, share of total night time asleep
[13] = 1 uM vs HOM - DMSO, transitions between sleep and wake bouts per hour, lights-off 22:00-08:00
[14] = 10 uM vs HOM - DMSO, average length of sleep bouts
[15] = 10 uM vs HOM - DMSO, average length of wake bouts
[16] = 10 uM vs HOM - DMSO, average velocity throughout the night time
[17] = 10 uM vs HOM - DMSO, share of total night time asleep
[18] = 10 uM vs HOM - DMSO, transitions between sleep and wake bouts per hour, lights-off 22:00-08:00
[19] = 30 uM vs HOM - DMSO, average length of sleep bouts
[20] = 30 uM vs HOM - DMSO, average length of wake bouts
[21] = 30 uM vs HOM - DMSO, average velocity throughout the night time
[22] = 30 uM vs HOM - DMSO, share of total night time asleep
[23] = 30 uM vs HOM - DMSO, transitions between sleep and wake bouts per hour, lights-off 22:00-08:00

Row | Compound | velocity in wild-type larvae [2] | SleepDuration (sleep bout duration) Mean Difference (I − J) [1, 9] | WakeDuration (wake bout duration) Mean Difference (I − J) [1, 10] | Velocity (during sleep) Mean Difference (I − J) [1, 11] | SleepRatio Mean Difference (I − J) [1, 12] | SleepFragmentation Mean Difference (I − J) [1, 13] | SleepDuration (sleep bout duration) Mean Difference (I − J) [1, 14] | WakeDuration (wake bout duration) Mean Difference (I − J) [1, 15] | Velocity (during sleep) Mean Difference (I − J) [1, 16] | SleepRatio Mean Difference (I − J) [1, 17] | SleepFragmentation Mean Difference (I − J) [1, 18] | SleepDuration (sleep bout duration) Mean Difference (I − J) [1, 19] | WakeDuration (wake bout duration) Mean Difference (I − J) [1, 20] | Velocity (during sleep) Mean Difference (I − J) [1, 21] | SleepRatio Mean Difference (I − J) [1, 22] | SleepFragmentation Mean Difference (I − J) [1, 23] | comparison of all sleep parameters (summary) [1] | further results
1 | N=C(N)NC(=O)Cc1c(Cl)cccc1Cl [Guanfacine, guanfacine] | – | – | – | – | – | – | – | – | – | – | – | – | – | – | – | – | – | SleepDuration (sleep bout duration) Mean Difference (I − J) [1, 6]: 3.64* s; SleepFragmentation Mean Difference (I − J) [1, 6]: −1.812; SleepRatio Mean Difference (I − J) [1, 6]: .12336*; Velocity (during sleep) Mean Difference (I − J) [1, 6]: −.08559* mm/s; WakeDuration (wake bout duration) Mean Difference (I − J) [1, 6]: −3.163* s; SleepDuration (sleep bout duration) Mean Difference (I − J) [1, 7]: 1.224 s; SleepFragmentation Mean Difference (I − J) [1, 7]: 7.4424; SleepRatio Mean Difference (I − J) [1, 7]: .06927*; Velocity (during sleep) Mean Difference (I − J) [1, 7]: −.07521* mm/s; WakeDuration (wake bout duration) Mean Difference (I − J) [1, 7]: −2.542* s; SleepDuration (sleep bout duration) Mean Difference (I − J) [1, 8]: 2.369* s; SleepFragmentation Mean Difference (I − J) [1, 8]: 1.559; SleepRatio Mean Difference (I − J) [1, 8]: .09806*; Velocity (during sleep) Mean Difference (I − J) [1, 8]: −.08512* mm/s; WakeDuration (wake bout duration) Mean Difference (I − J) [1, 8]: −2.735* s
2 | CNCC[C@@H](Oc1ccccc1C)c1ccccc1 [atomoxetine, atomoxetine hydrochloride] | increase velocity | 8.266* s | −2.547* s | −.09320* mm/s | .18730* | −23.58* | 6.306* s | -1.806 s | −.03944* mm/s | .15382* | −19.14* | 9.808* s | −3.112* s | −.10640* mm/s | .22326* | −26.47* | drastically altered all sleep parameters at the majority of doses tested | spontaneous alternations, rescue of scopolamine effect ([3]; vs scopolamine-exposed mice, p<0.0001, FIG. 4): rescued
3 | COc1nc(C)nc(Cl)c1NC1=NCCN1 [Moxonidine, moxonidine] | increase velocity | -1.586 s | 0.8031 s | −0.02492 mm/s | −0.04916 | 3.2294 | -1.0974 s | -0.00334 s | −.07640* mm/s | −0.02153 | 5.727 | -1.57 s | 3.687 s | −.05041* mm/s | −0.06247 | −1.7339 | only a slight increase in velocity | behavioral parameters (24 hour velocity spectrogram) ([2]; 10 μM, FIG. 5): no effect on behavioral parameters; sedation in the rotarod assay [4]: less sedation compared to clonidine and brimonidine; average distance moved over the five lights-on phases ([5]; 1 μM, 10 μM or 30 μM vs vehicle control (DMSO), FIG. 3): differed significantly from vehicle control and untreated larvae; also recorded: Statistically significant differences; behavioral deficits (24 hour velocity spectrogram) ([5]; 10 μM, Lphn3.1 HOM larvae, FIG. 5): rectifies the behavioral deficits; spontaneous alternation, dose dependence ([3]; 0.1 mg/kg, 0.3 mg/kg and 1 mg/kg, FIG. 4): dose-dependent increase in spontaneous alternation; spontaneous alternation ([3]; 0.3 mg/kg vs mice exposed to scopolamine, p<0.001): significant increased spontaneous alternation; spontaneous alternation ([3]; 1 mg/kg vs mice exposed to scopolamine, p<0.0001): significant increased spontaneous alternation
4 | Clc1cccc(Cl)c1N=C1NCCN1 [Clonidine, clonidine] | – | −4.177* s | 2.095* s | .08382* mm/s | −.12630* | 11.79* | −4.388* s | 2.1* s | .09470* mm/s | −.13226* | 12.98* | −6.197* s | 8.132* s | .23026* mm/s | −.24115* | −7.699 | drastically altered all sleep parameters at the majority of doses tested | –
